We go through one compound from publication PMC11284788, “NN1213 – A Potent, Long-Acting, and Selective Analog of Human Amylin” (Journal of Medicinal Chemistry, 2024).

The target in one data set is T1, rat AMY3R (Rattus norvegicus, UniProt P32214+Q9JJ73).
T1 construct: expressed in transfected cells; host or cells: BHK tk-ts 13, transient co-transfection (FuGENE 6)
T1 sequence (P32214 25-479 isoform P32214-2 limits assumed): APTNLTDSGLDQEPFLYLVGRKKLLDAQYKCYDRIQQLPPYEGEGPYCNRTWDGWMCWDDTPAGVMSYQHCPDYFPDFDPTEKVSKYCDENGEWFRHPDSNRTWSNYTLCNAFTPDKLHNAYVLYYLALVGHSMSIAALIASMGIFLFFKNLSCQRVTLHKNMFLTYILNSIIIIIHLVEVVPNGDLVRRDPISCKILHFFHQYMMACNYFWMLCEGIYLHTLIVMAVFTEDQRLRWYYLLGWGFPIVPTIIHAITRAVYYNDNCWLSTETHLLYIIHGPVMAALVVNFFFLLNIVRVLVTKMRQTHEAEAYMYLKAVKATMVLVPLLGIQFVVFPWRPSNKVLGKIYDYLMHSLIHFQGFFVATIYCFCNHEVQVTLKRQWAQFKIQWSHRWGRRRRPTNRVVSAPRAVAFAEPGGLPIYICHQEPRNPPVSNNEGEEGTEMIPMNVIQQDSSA
T1 sequence (Q9JJ73 23-147 partner): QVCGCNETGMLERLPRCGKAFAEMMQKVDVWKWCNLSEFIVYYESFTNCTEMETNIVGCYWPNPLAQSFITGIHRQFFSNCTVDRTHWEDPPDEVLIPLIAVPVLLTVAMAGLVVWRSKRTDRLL
The data set can be described thus: cAMP FlashPlate assay, rat AMY3R. Type of data set: cell-based. The following applies: ratio of cAMP EC50 values.

A further data set deals with cCTR. The data set can be described thus: Species-specific cAMP assay, cCTR. The note with it: cAMP HTRF, transiently transfected BHK cells, 30 min room temperature, five experiments.
Another data set can be described thus: in vivo. The note with it: male, Göttingen, minipig, iv.
A further data set concerns the target hAMY1R (Homo sapiens, UniProt O60894+P30988). The data set can be described thus: Species-specific cAMP assay, hAMY1R. The following applies: ratio of cAMP EC50 values, human receptors.

Sequence of hAMY1R (P30988 25-474): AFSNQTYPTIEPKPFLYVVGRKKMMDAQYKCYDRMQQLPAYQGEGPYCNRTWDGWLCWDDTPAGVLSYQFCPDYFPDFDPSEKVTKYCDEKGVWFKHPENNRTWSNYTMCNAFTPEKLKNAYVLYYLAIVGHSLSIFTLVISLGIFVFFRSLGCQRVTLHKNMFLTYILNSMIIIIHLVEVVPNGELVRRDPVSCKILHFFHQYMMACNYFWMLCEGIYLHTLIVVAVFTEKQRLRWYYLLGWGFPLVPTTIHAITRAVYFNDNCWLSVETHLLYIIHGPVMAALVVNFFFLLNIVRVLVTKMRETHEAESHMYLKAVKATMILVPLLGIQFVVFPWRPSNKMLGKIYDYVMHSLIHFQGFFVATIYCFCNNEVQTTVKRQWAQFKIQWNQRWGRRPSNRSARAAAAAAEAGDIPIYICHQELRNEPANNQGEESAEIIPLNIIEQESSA
Sequence of hAMY1R (O60894 27-148 partner): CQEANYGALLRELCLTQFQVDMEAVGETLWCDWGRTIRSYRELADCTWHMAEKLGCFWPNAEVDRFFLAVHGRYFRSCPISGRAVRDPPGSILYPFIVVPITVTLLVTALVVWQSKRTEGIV

Consider `CC[C@H](C)[C@H](NC(=O)[C@H](C)NC(=O)CNC(=O)[C@H](Cc1ccccc1)NC(=O)[C@H](CC(N)=O)NC(=O)[C@@H]1CCCN1C(=O)[C@H](CO)NC(=O)[C@H](CO)NC(=O)[C@H](Cc1c[nH]cn1)NC(=O)[C@H](CCCNC(=N)N)NC(=O)[C@H](CC(C)C)NC(=O)[C@H](Cc1ccccc1)NC(=O)[C@H](CC(=O)O)NC(=O)[C@H](C)NC(=O)[C@H](CC(C)C)NC(=O)[C@H](CCCNC(=N)N)NC(=O)[C@H](CCC(N)=O)NC(=O)[C@@H](NC(=O)[C@H](C)NC(=O)[C@@H]1CSSC[C@H](NC(=O)[C@@H](N)CCCCNC(=O)CC[C@H](NC(=O)CC[C@H](NC(=O)CCCCCCCCCCCCCCCCCCC(=O)O)C(=O)O)C(=O)O)C(=O)N[C@@H](CC(N)=O)C(=O)N[C@@H]([C@@H](C)O)C(=O)N[C@@H](C)C(=O)N[C@@H]([C@@H](C)O)C(=O)N1)[C@@H](C)O)C(=O)N1CCC[C@H]1C(=O)N[C@@H](CO)C(=O)N[C@@H](CO)C(=O)N[C@H](C(=O)N[C@@H](CC(N)=O)C(=O)N[C@H](C(=O)NCC(=O)N[C@@H](CO)C(=O)N[C@@H](CCCNC(=N)N)C(=O)N[C@H](C(=O)N[C@@H](Cc1ccc(O)cc1)C(N)=O)[C@@H](C)O)C(C)C)[C@@H](C)O` [NN1213], for which the “ratio rCTR/rAMY3R” value on rat AMY3R is listed as 391. For the same compound, in the data set on cCTR, the “cCTR pEC50” value amounted to 9.39. In “in vivo”, the half-life is 116 h. Moreover, the “Ratio CTR/AMY1R (human, functional)” value at hAMY1R amounted to 32.
